The values that follow come from US20030100565A1, “Method for the treatment or prevention of atopic dermatitis” (Boehringer Ingelheim International GmbH, priority 2001, published 2003).

The subject of experiment [1] is SP-induced scratching. In words: Effect on SP-induced scratching in mice. The class given is in vivo, ddY mice. As to conditions: for scratching behavior count induced by SP: 1 h before intradermal SP, FIG. 1, control 50.5±12.1, mean±S.E.; for scratching behaviour count induced by SP: another experiment; for effect on SP-induced scratching compared with Compounds Ia and Ib: mice, dose not stated. As for the experimental part:
Assay: Effect of NK1 Receptor Antagonist Ia, on SP-Induced Scratching in Mice Male ddY mice (Japan SLC, Ltd., Shizuoka, Japan) of 8-9 weeks of ages weighing 34-43 g, were used in the experiment. Mice were fasted 4 hours prior to the initiation of the experiment with free access to water. Epinastine and NK1 receptor antagonist of formulae Ia, Ib, Ic and Id (Compounds Ia to Id) were provided by Boehringer Ingelheim Pharma K.G. (Germany). SP (lot. No. 80K5 104) was supplied by Sigma Co., Ltd. (USA) and dissolved in physiological saline. Before recording of behavior, the mice (two animals per one cage) were put into an acryl cage for at least 5 hours for acclimation. […] Playing back of video served for counting scratching behavior. […] Data were analyzed by One-way ANOVA and post hoc Tukey test; p<0.05 value was considered. Data presented as the mean±S.E.

Experiment [2] concerns SP-induced scratching. In words: Effect on SP-induced scratching in guinea pigs. As to conditions: for effect on SP-induced scratching compared with Compounds Ia and Id: dose not stated. The class given is in vivo, Hartley guinea pigs. As for the experimental part:
Assay: Effect of NK1 Receptor Antagonist Ia, on SP-Induced Scratching in Guinea Pigs
Male Hartley guinea pigs (Japan SLC, Ltd., Shizuoka, Japan) of 4-5 weeks old weighing 275-395 g were used in the experiment. The guinea pigs were fasted more than 12 hours prior to the initiation of the experiment with free access to water. 6-8 guinea pigs were used for each group.
Prior to the recording of behaviour, the guinea pigs (one animal per cage) were kept in a cage for observation for at least 1 hour for acclimation. Compound Ia was dosed at 1 hour prior to the administration of substance P. […] SP (150 μg/body) was injected intradermally in volume of 20 μL into the rostral back (around interscapular level). Immediately after the administration of SP, the behaviour of the guinea pigs were recorded using VHS video camera for 1 hour with any persons kept out the observation room (sound proof condition). Playing back of video was served for counting the number of scratching behaviour.
The total scratching counts during 60 min of observation were analysed by one-way ANOVA and Dunnett's multiple comparison test between vehicle treatment and drug treatments; p<0.05 value was considered as significant. Scratching counts were expressed as the mean+S.E.

For experiment [3], the system named is SP-induced scratching. The settings on record: mice; reported by Inagaki et al., Eur J Pharmacol 2000; cited from earlier work.

As to `CN(CCc1cc(C(F)(F)F)cc(C(F)(F)F)c1)C(=O)[C@H](c1ccccc1)N1CCN(CC2CC2)CC1` [Compound Ia], in the experiment on SP-induced scratching [1] (30 mg/kg p.o.), the “scratching behavior count induced by SP” value stood at 21.1±6.1 beats/60 min. The “scratching behaviour count induced by SP” value in the experiment with SP-induced scratching [1] (30 mg/kg p.o., FIG. 2a, control 59.0±6.0/60 min) amounted to 29.9±6.6 beats/60 min. For the same compound, the “dose dependency of effect on SP-induced scratching behavior” value in the experiment with SP-induced scratching [1] (10 and 30 mg/kg p.o., FIG. 3, vehicle 51.0±12.9 beats/60 min) is “inhibited the scratching induced by SP, and the effect was dose dependent”. In addition, the “overall effect on scratching behaviour (conclusion)” value in the experiment on SP-induced scratching [1] (ddY mice, effect similar to epinastine) is on record as “apparent inhibitory effect”. The “inhibition of scratching behaviour induced by SP” value in the experiment on SP-induced scratching [2] (guinea pigs, higher doses of 0.1 mg/kg p.o., FIG. 5.1) is given as “significant inhibition”; in the experiment on SP-induced scratching [2] (guinea pigs, lower doses of 0.03 mg/kg p.o., FIG. 5.2) it was “tendency to inhibit”. Further, the “inhibition of scratching behaviour induced by SP, dose dependency” value with SP-induced scratching [2] (guinea pigs, p.o., 1 h before SP, FIG. 5) is on record as “inhibited the scratching behaviour induced by SP dose dependently”.

As for `CN(CCc1cc(C(F)(F)F)cc(C(F)(F)F)c1)C(=O)[C@H](c1ccccc1)N1CCC(N(C)CCCO)CC1` [Ic, (S)-N-[2-(3,5-Bis-trifluormethyl-phenyl)-ethyl]-2-{4-[(3-hydroxy-propyl)-methyl-amino]-piperidin-1-yl}-N-methyl-2-phenyl-acetamide], in the experiment with SP-induced scratching [1], the “effect on SP-induced scratching compared with Compounds Ia and Ib” value was “Comparable results”. Besides, the “effect on SP-induced scratching compared with Compounds Ia and Id” value in the experiment with SP-induced scratching [2] (guinea pigs) is on record as “Comparable results”.

For the compound `NC1=NCC2c3ccccc3Cc3ccccc3N12` (stereo not shown) [epinastine, reference compound], the “effect on SP-induced scratching” value in the experiment on SP-induced scratching [3] was “significant effect”. Further, in the experiment on SP-induced scratching [1] (10 mg/kg p.o.), the “scratching behavior count induced by SP” value was determined as 20.0±8.4 beats/60 min. In the experiment with SP-induced scratching [1] (10 mg/kg p.o., FIG. 2b, control 51.6±7.8/60 min), the “scratching behaviour count induced by SP” value came out at 33.7±4.0 beats/60 min.

Turning to `CN(CCc1cc(C(F)(F)F)cc(C(F)(F)F)c1)C(=O)[C@H](c1ccccc1)N1CCC(NC(CO)CO)CC1` [Compound Id, (S)-N-[2-(3,5-Bis-trifluormethyl-phenyl)-ethyl]-2-[4-(2-hydroxy-1-hydroxymethyl-ethylamino)-piperidin-1-yl]-N-methyl-2-phenylacetamid], the “effect on SP-induced scratching compared with Compounds Ia and Ib” value in the experiment with SP-induced scratching [1] is on record as “Comparable results”. Also, in the experiment on SP-induced scratching [2] (guinea pigs, 0.3, 1.0 and 3.0 mg/kg p.o., FIG. 6), the “inhibition of scratching behaviour induced by substance P” value was “inhibited”.

Regarding “(S)-N-[2-(3,5-Bis-trifluormethyl-phenyl)-ethyl]-2-{4-[cyclopropylmethyl-(3-hydroxy-propyl) -amino]-piperidin-1-yl}-N-methyl-2-phenyl-acetamid [Compound Ib]”, the “inhibition of scratching behaviour induced by substance P” value in the experiment on SP-induced scratching [1] (30 mg/kg p.o., FIG. 4) was “inhibited”. In the experiment on SP-induced scratching [2] (guinea pigs), the “effect on SP-induced scratching compared with Compounds Ia and Id” value is reported as “Comparable results”.
